Experimental data: patent US20120142676A1, “Oxathiazine and dithiine oxides as inhibitors of sulfhydryl-dependent biomolecules” (priority 2010, published 2012)

Assays:
[1] = tested on: K562 cell homogenate; assay: Thioglo-1 fluorescent labeling of sulfhydryl groups, K562 cell homogenate; assay type: biochemical, human; settings: 50 μM drug, 6×10^5 cells, 37° C., 3 h, 20 mM Tris pH 8.0
Protocol: (§1) The ability of drugs to label sulfhydryl groups of cysteine, glutathione, human serum albumin (HSA) and biomolecules in K562 cells was determined spectrofluorometrically using Thioglo-1, a maleimide reagent that reacts quickly with the sulfhydryl groups to produce highly fluorescent covalent adducts. Drugs that react with sulfhydryl groups block the formation of fluorescent adducts when sulfhydryl reactant is treated with drugs prior to Thioglo-1 treatment. Cysteine (10 μM), glutathione (10 μM), human serum albumin (10 μM), or K562 cell homogenate (6×10^5 cells) in 20 mM Tris pH 8.0, was treated with 1μl of drug (or not) in DMSO at 50 μM reaction concentration at 37° C. for 3 h, followed by the addition of Thioglo-1 (22 μM). The fluorescence was measured in a Fluostar Galaxy (BMG, Durham, N.C.) fluorescence plate reader using an excitation wavelength of 380 nm and an emission wavelength of 520 nm, and the percentage inhibition of fluorescent labeling was obtained using the following equation: % Inhibition=[(1−(Fdrug−Fbackground)/Fdmso]×100, where Fdrug is the fluorescent value for Thioglo-1 treatment of biomolecules pretreated with drug, Fbackground is the fluorescent value for sample containing Thioglo-1 in Tris buffer only, and Fdmso is the fluorescent value for Thioglo-1 treatment of biomolecules pretreated with DMSO solvent only.

[2] = biological target: T1, human serum albumin (HSA) (Homo sapiens, UniProt P02768); assay: Thioglo-1 fluorescent labeling of sulfhydryl groups, human serum albumin; assay type: biochemical; settings: 50 μM drug, HSA 10 μM, 37° C., 3 h, 20 mM Tris pH 8.0
Protocol: as §1

[3] = Thioglo-1 fluorescent labeling of sulfhydryl groups, cysteine; settings: 50 μM drug, 37° C., 3 h, 20 mM Tris pH 8.0
Protocol: as §1

[4] = Thioglo-1 fluorescent labeling of sulfhydryl groups, glutathione; settings: 50 μM drug, 37° C., 3 h, 20 mM Tris pH 8.0
Protocol: as §1

[5] = biological target: T2, human topoisomerase IIα (Homo sapiens, UniProt P11388); assay: Topoisomerase IIα decatenation inhibition assay; assay type: biochemical; settings: K562 cells nuclear extract, kDNA decatenation
T2 construct: 300 ng K562 cells nuclear extract, the amount that gave 80% decatenation; endogenous in cells; host or cells: K562 cells nuclear extract
Protocol: The catalytic inhibition of human topoisomerase IIα by a drug was measured by the ATP-dependent decatenation of kDNA (Topogen, Columbus, Ohio) into minicircles of DNA as we previously described (Hasinoff 1995 QSAR ICRF-187). The 20 μl reaction mixture contained 0.5 mM ATP, 50 mM Tris-HCl (pH 8.0), 120 mM KCl, 10 mM MgCl2, 30 μg/ml bovine serum albumin, 40 ng kDNA, drug or DMSO (0.5 μl) and 300 ng K562 cells nuclear extract, the amount that gave 80% decatenation. The enzymatic reaction was carried out at 37° C. and was terminated by the addition of 6 μl of buffer containing 5 mM Tris pH 8.0, 30% w/v sucrose, 0.5% bromophenol blue, and 125 mM EDTA. The resulting mixture was separated by electrophoresis (2 h at 8 V/cm) on an agarose gel prepared from 1.2% w/v agarose and 0.5 μg/ml ethidium bromide in TAE buffer pH 8.0 (40 mM Tris base, 0.114% (v/v) glacial acetic acid, 2 mM EDTA). The DNA in the gel was imaged by its fluorescence on an Alpha Annotech Fluorchem 8900 imaging system equipped with a 365 nm illuminator and a CCD camera. Densitometry scanning of gel photographs was used to obtain the fluorescence intensity of the band corresponding to the DNA minicircles. The percentage inhibition of K562 topoisomerase II catalytic activity at concentrations of 3 and 30 μM was determined using the following equation: % Inhibition=[(1−(Bdrug−Bbackground)/Bdmso]×100, where Bdrug is the band intensity value for the enzymatic reaction sample treated with drug, Bbackground is the band intensity value for sample without the enzyme, and Bdmso is the band intensity value for the enzymatic reaction sample treated with DMSO solvent only.

[6] = tested on: human leukemia K562 cells; assay: K562 cell growth inhibition assay (MTS); assay type: cell-based; settings: 72 h incubation, read-out: Median growth inhibitory concentration (IC50) of K562 cells
Protocol: K562 cells were obtained from American Type Culture Collection (Rockville, Md.). These cells were maintained as suspension cultures in alpha minimum essential medium (αMEM) (Gibco BRL, Burlington, Canada) containing 2 mM L-glutamine and supplemented with 10% fetal calf serum (Invitrogen, Burlington, ON, Canada), 20 mM NaHCO3, 20 mM HEPES (Sigma), 100 units/ml penicillin G, and 100 μg/ml streptomycin at pH 7.4 in an atmosphere of 5% CO2 and 95% air at 37° C. For the measurement of growth inhibition, cells in exponential growth were harvested and seeded at 6000 cells/well in 96-well plates (100 μl/well). Drugs were dissolved in DMSO and added to the wells such that the final concentration of DMSO was 0.5% (v/v). After 72 h incubation, 7 μl of 3-(4,5-dimethylthiazol-2-yl)-5-(3-carboxymethoxyphenyl)-2-(4-sulfophenyl)-2H-tetrazolium (MTS) Cell Titer 96® AQueous One Solution (Promega, Md., WI) was added to each well and incubated for a further 3 h. The absorbance was measured in a Molecular Devices (Menlo Park, Calif.) plate reader. The spectrophotometric 96-well plate cell growth inhibition assay measures the ability of the cells to enzymatically reduce MTS. Three replicates were measured at each drug concentration, and the IC50 values and their SEs for growth inhibition were obtained by fitting the absorbance-drug concentration data to a four-parameter logistic equation.

[7] = biological target: T1, human serum albumin (HSA); assay: ESI-MS study on covalent labeling of sulfhydryl group of HSA; assay type: binding; settings: drug with 65 μM HSA, Tris pH 7.5, 5 h, room temperature
Protocol: The MS drug-HSA protein binding studies were carried out using an Applied Biosystems API 2000 Triple Quadrupole mass spectrometer (Thornhill, Canada) equipped with a syringe pump (Harvade Apparatus, Holliston, Mass.) at a flow rate of 5-10 μl/min. The Analyst software (version 1.4) was used for system control and data acquisition. The ESI source was operated in the positive ion mode with an electrospray voltage of +4.4 kV without capillary heating. MagTran freeware (version 1.02, http://www.geocities.com/SiliconValley/Hills/2679/magtran.html) was used for charge state deconvolution of HSA and drug-HSA covalent adducts.
The reaction of drug and HSA was carried out by mixing drug (or not) in DMSO (11μl, 6 mM) with HSA in 16 mM Tris pH 7.5 buffer (1 ml, 65 μM) for 5 h at room temperature. The reaction mixture was then dialyzed using a dialysis membrane with a 10,000 Da cutoff. The dialyzed mixture (150 μl) was diluted with a solution mixture of water (124 μl), methanol (76 μl), and formic acid (17 μl, 6% v/v). Scanning was 1000-1800 m/z units every 4 s with a step size of 0.10 amu.

T1 sequence (P02768 25-609): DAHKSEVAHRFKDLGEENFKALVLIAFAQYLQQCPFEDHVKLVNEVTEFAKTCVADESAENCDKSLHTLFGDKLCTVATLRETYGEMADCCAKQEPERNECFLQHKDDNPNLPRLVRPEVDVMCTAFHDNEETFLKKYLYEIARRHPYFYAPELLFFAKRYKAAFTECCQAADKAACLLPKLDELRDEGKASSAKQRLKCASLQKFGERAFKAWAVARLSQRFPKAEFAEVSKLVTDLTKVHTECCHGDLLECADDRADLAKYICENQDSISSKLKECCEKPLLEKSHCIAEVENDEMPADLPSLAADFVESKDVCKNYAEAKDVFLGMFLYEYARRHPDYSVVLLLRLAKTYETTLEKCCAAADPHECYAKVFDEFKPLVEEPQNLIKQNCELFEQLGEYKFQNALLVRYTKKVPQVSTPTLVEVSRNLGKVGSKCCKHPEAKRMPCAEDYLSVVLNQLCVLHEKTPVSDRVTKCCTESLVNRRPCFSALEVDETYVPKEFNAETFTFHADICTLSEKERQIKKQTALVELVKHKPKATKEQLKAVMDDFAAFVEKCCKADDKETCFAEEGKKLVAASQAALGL
T2 sequence (P11388 whole entry): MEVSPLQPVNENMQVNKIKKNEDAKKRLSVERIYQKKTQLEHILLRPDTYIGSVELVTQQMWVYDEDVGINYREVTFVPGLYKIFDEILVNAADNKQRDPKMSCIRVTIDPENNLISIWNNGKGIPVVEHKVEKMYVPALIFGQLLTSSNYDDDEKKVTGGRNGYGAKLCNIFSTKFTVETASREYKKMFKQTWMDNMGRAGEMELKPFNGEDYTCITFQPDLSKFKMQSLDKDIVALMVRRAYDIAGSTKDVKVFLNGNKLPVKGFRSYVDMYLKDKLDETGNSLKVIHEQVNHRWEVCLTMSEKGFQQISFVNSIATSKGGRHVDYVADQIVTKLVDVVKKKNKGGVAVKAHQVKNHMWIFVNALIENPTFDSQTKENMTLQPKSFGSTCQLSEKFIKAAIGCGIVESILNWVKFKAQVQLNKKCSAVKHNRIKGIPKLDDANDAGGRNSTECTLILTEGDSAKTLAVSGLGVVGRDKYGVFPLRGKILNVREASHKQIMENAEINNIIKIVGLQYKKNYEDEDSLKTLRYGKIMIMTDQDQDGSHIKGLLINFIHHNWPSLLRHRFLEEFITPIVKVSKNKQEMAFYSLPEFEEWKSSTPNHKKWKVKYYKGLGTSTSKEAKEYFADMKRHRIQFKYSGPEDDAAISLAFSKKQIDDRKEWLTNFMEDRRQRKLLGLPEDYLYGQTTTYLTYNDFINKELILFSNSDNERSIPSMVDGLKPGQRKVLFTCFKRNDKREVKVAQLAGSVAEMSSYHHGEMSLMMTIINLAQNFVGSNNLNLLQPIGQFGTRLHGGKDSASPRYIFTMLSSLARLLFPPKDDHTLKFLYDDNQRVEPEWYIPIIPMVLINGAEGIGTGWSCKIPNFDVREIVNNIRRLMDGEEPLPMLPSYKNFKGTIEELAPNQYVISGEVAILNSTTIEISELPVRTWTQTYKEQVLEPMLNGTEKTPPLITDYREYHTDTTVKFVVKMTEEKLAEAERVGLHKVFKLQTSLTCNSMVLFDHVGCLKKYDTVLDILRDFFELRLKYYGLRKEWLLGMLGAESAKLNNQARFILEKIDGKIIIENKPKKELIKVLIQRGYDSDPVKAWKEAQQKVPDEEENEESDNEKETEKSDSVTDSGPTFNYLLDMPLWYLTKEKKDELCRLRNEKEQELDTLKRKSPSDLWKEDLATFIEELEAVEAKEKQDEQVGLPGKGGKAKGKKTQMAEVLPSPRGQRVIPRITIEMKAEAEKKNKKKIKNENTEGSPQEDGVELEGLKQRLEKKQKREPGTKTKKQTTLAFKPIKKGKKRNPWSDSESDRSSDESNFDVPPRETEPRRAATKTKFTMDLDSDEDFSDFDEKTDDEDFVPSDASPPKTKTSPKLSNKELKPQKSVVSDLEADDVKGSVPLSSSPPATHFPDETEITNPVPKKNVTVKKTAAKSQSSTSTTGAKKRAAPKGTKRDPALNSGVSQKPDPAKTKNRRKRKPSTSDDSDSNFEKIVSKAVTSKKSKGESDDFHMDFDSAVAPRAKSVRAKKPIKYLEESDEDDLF

[O-][S+]1CCON=C1c1cc2ccccc2s1 (centres unmarked) [CMPD #9]
% Inhibition of Thioglo-1 fluorescent labeling of K562 Cell homogenate [1]: 95%
% Inhibition of Thioglo-1 fluorescent labeling of Human serum albumin [2]: 85%
% Inhibition of Thioglo-1 fluorescent labeling of 10 μM Cysteine [3]: 100%
% Inhibition of Thioglo-1 fluorescent labeling of 10 μM Glutathione [4]: 100%
% Inhibition of topoisomerase II catalytic activity ([5]; 3 μM): 100%
% Inhibition of topoisomerase II catalytic activity ([5]; 30 μM): 100%
IC50 [6]: 700 nM
Covalent labeling of HSA (ESI-MS peak description) [7]: Covalent adduct of HSA and Compound 9
